Experimental data from PMC2688486, “Xylose reductase from Pichia stipitis with altered coenzyme preference improves ethanolic xylose fermentation by recombinant Saccharomyces cerevisiae” (Biotechnology for Biofuels, 2009).

Assays:
[1] = biological target: T1, P. stipitis XR (xylose reductase, XYL1) (Scheffersomyces stipitis, UniProt P31867); assay: NAD(P)H absorbance at […] nm, initial rates fitted to compulsory-order ternary-complex equation; assay type: biochemical; conditions: crude extract, xylose co-substrate varied, pH 7.0 triethanolamine, 30°C; kinetic dissociation constant; read-out: KiA
T1 construct: native full-length XYL1 from plasmid pY7, chromosomally integrated in S. cerevisiae TMB 3044 (gre3 deleted); crude cell extract

[2] = biological target: T2, P. stipitis XR (xylose reductase, XYL1) (Scheffersomyces stipitis, UniProt P31867, K270R); assay: as above; assay type: biochemical; conditions: crude extract, xylose co-substrate varied, pH 7.0 triethanolamine, 30°C; kinetic dissociation constant; read-out: KiA
T2 construct: native full-length XYL1 from plasmid pY7, chromosomally integrated in S. cerevisiae TMB 3044 (gre3 deleted); crude cell extract

[3] = biological target: T3, P. stipitis XR (xylose reductase, XYL1) (Scheffersomyces stipitis, UniProt P31867, K270M); assay: as above; assay type: biochemical; conditions: crude extract, xylose co-substrate varied, pH 7.0 triethanolamine, 30°C; kinetic dissociation constant; read-out: KiA
T3 construct: native full-length XYL1 from plasmid pY7, chromosomally integrated in S. cerevisiae TMB 3044 (gre3 deleted); crude cell extract

[4] = substrate: NC(=O)C1=CN([C@@H]2O[C@H](COP(=O)(O)OP(=O)(O)OC[C@H]3O[C@@H](n4cnc5c(N)ncnc54)[C@H](O)[C@@H]3O)[C@@H](O)[C@H]2O)C=CC1; assay: cells, lysate or membranes; assay type: biochemical, Scheffersomyces stipitis; conditions: crude extract, xylose co-substrate varied, pH 7.0 triethanolamine, 30°C, varied: cofactor
[5] = substrate: NC(=O)C1=CN([C@@H]2O[C@H](COP(=O)(O)OP(=O)(O)OC[C@H]3O[C@@H](n4cnc5c(N)ncnc54)[C@H](OP(=O)(O)O)[C@@H]3O)[C@@H](O)[C@H]2O)C=CC1; assay: cells, lysate or membranes; assay type: biochemical, Scheffersomyces stipitis; conditions: crude extract, xylose co-substrate varied, pH 7.0 triethanolamine, 30°C, varied: cofactor

| Kd [1] | Kd [2] | Kd [3] | Molecule | Km [4] | Km [5] |
| --- | --- | --- | --- | --- | --- |
| 25.9 ± 11.7 µM | 57.4 ± 34.9 µM | – | NC(=O)C1=CN([C@@H]2O[C@H](COP(=O)(O)OP(=O)(O)OC[C@H]3O[C@@H](n4cnc5c(N)ncnc54)[C@H](O)[C@@H]3O)[C@@H](O)[C@H]2O)C=CC1 [NADH] | – | – |
| 1.4 ± 1.2 µM | 22.9 ± 17.6 µM | 293 ± 169 µM | NC(=O)C1=CN([C@@H]2O[C@H](COP(=O)(O)OP(=O)(O)OC[C@H]3O[C@@H](n4cnc5c(N)ncnc54)[C@H](OP(=O)(O)O)[C@@H]3O)[C@@H](O)[C@H]2O)C=CC1 [NADPH] | – | – |
| – | – | – | P. stipitis XR (xylose reductase, XYL1) (Scheffersomyces stipitis CBS 6054) (protein, native full-length XYL1 from plasmid pY7, chromosomally integrated in S. cerevisiae TMB 3044 (gre3 deleted); crude cell extract) MPSIKLNSGYDMPAVGFGCWKVDVDTCSEQIYRAIKTGYRLFDGAEDYANEKLVGAGVKKAIDEGIVKREDLFLTSKLWNNYHHPDNVEKALNRTLSDLQVDYVDLFLIHFPVTFKFVPLEEKYPPGFYCGKGDNFDYEDVPILETWKALEKLVKAGKIRSIGVSNFPGALLLDLLRGATIKPSVLQVEHHPYLQQPRLIEFAQSRGIAVTAYSSFGPQSFVELNQGRALNTSPLFENETIKAIAAKHGKSPAQVLLRWSSQRGIAIIPKSNTVPRLLENKDVNSFDLDEQDFADIAKLDINLRFNDPWDWDKIPIFV | 28.7 ± 5.4 µM | 1.0 ± 0.6 µM |
| – | – | – | P. stipitis XR (xylose reductase, XYL1) (Scheffersomyces stipitis CBS 6054; K270M) (protein, native full-length XYL1 from plasmid pY7, chromosomally integrated in S. cerevisiae TMB 3044 (gre3 deleted); crude cell extract) MPSIKLNSGYDMPAVGFGCWKVDVDTCSEQIYRAIKTGYRLFDGAEDYANEKLVGAGVKKAIDEGIVKREDLFLTSKLWNNYHHPDNVEKALNRTLSDLQVDYVDLFLIHFPVTFKFVPLEEKYPPGFYCGKGDNFDYEDVPILETWKALEKLVKAGKIRSIGVSNFPGALLLDLLRGATIKPSVLQVEHHPYLQQPRLIEFAQSRGIAVTAYSSFGPQSFVELNQGRALNTSPLFENETIKAIAAKHGKSPAQVLLRWSSQRGIAIIPMSNTVPRLLENKDVNSFDLDEQDFADIAKLDINLRFNDPWDWDKIPIFV | – | 290 ± 78.6 µM |
| – | – | – | P. stipitis XR (xylose reductase, XYL1) (Scheffersomyces stipitis CBS 6054; K270R) (protein, native full-length XYL1 from plasmid pY7, chromosomally integrated in S. cerevisiae TMB 3044 (gre3 deleted); crude cell extract) MPSIKLNSGYDMPAVGFGCWKVDVDTCSEQIYRAIKTGYRLFDGAEDYANEKLVGAGVKKAIDEGIVKREDLFLTSKLWNNYHHPDNVEKALNRTLSDLQVDYVDLFLIHFPVTFKFVPLEEKYPPGFYCGKGDNFDYEDVPILETWKALEKLVKAGKIRSIGVSNFPGALLLDLLRGATIKPSVLQVEHHPYLQQPRLIEFAQSRGIAVTAYSSFGPQSFVELNQGRALNTSPLFENETIKAIAAKHGKSPAQVLLRWSSQRGIAIIPRSNTVPRLLENKDVNSFDLDEQDFADIAKLDINLRFNDPWDWDKIPIFV | 62.8 ± 18.7 µM | 25.8 ± 9.1 µM |
